Measured values from US8216786B2, “Genetic polymorphisms associated with cardiovascular diseases, methods of detection and uses thereof” (Celera Corporation, priority 2008, dated 2012).

Test system: individuals who have previously had an MI
Experiment: CARE trial: effect of pravastatin vs placebo on coronary events (endpt1, rmi) by SNP genotype subgroup
Assay type: in vivo, human
Conditions: for HR: pravastatin vs placebo
Procedure: In Tables 21-22, the column labeled “Endpoint” indicates whether the endpoint that was analyzed was the primary endpoint of the CARE study (a composite endpoint of fatal coronary event or nonfatal MI, and identified as “endpt1”) or a composite endpoint of confirmed fatal or nonfatal MI (identified as “rmi”). […] As used herein, the term “benefit” (with respect to a preventive or therapeutic drug treatment) is defined as achieving a reduced risk for a disease that the drug is intended to treat or prevent (e.g., CVD such as CHD, particularly MI, or hypertension) by administering the drug treatment, compared with the risk for the disease in the absence of receiving the drug treatment (or receiving a placebo in lieu of the drug treatment) for the same genotype. […] J. […] (1996) New England Journal of Medicine 335: 1001-1009. […] A well-documented MI was one of the enrollment criteria for entry into the CARE study. Patients were enrolled in the CARE trial from 80 participating study centers. […] For the study of CARE described in this Example and shown in Tables 21-22, two endpoints were investigated: the primary endpoint of CARE (a composite endpoint of fatal coronary event or nonfatal MI, and identified as “endpt1” in the Endpoint column of Tables 21-22) and a composite endpoint of confirmed fatal or nonfatal MI (identified as “rmi” in the Endpoint column of Tables 21-22). […] HR stands for Hazard Ratio, which is a concept similar to Odds Ratio (OR). The HR in event-free survival analysis is the effect of an explanatory variable on the hazard or risk of an event. […] In Table 21, p-interaction values were calculated. An interaction (or effect modification) is formed when a third variable modifies the relation between an exposure and outcome. […] Genotype and drug interaction is present when the effect of statins (incidence rate of disease in statin-treated group, as compared to placebo) differs in patients with different genotypes.

[1] = endpt1, hCV8851065 rs9277343 HLA-DPA1, GC + CC
[2] = endpt1, hCV8851065 rs9277343 HLA-DPA1, GG
[3] = endpt1, hCV8851085 rs1042153 HLA-DPB1, AG + AA
[4] = endpt1, hCV8851085 rs1042153 HLA-DPB1, GG
[5] = endpt1, hCV8851095 rs1042335 HLA-DPB1, TC + CC
[6] = endpt1, hCV8851095 rs1042335 HLA-DPB1, TT
[7] = endpt1, hCV8895373 rs1503185 PTPRJ, AG + AA
[8] = endpt1, hCV8895373 rs1503185 PTPRJ, GG
[9] = endpt1, hCV8901525 rs861539 KLC1, AG + AA
[10] = endpt1, hCV8901525 rs861539 KLC1, GG
[11] = endpt1, hCV8921288 rs1060621 GAPDH, AA
[12] = endpt1, hCV8921288 rs1060621 GAPDH, CA + CC
[13] = endpt1, hCV9055799 rs3734311 IMPG1, CC
[14] = endpt1, hCV9055799 rs3734311 IMPG1, CG + GG
[15] = endpt1, hCV9077561 rs1801274 FCGR2A, AA
[16] = endpt1, hCV9077561 rs1801274 FCGR2A, GA + GG
[17] = endpt1, hCV9506149 rs1250259 FN1, AA
[18] = endpt1, hCV9506149 rs1250259 FN1, TA + TT
[19] = endpt1, hCV9596963 rs6115 SERPINA5, GA + AA
[20] = endpt1, hCV9596963 rs6115 SERPINA5, GG
[21] = endpt1, hCV9604851 rs1805002 CCKBR, AG + AA
[22] = endpt1, hCV9604851 rs1805002 CCKBR, GG
[23] = endpt1, hCV25630686 PSMB9, TC + TT
[24] = endpt1, hCV25631989 rs1135983 ATF6, CC
[25] = endpt1, hCV25631989 rs1135983 ATF6, TC + TT
[26] = endpt1, hCV25637309 rs3204849 CCRL2, AA
[27] = endpt1, hCV25637309 rs3204849 CCRL2, AT + TT
[28] = endpt1, hCV25644901 ITGA9, GA + GG
[29] = endpt1, hCV25651076 rs5743291 NOD2, AG + AA
[30] = endpt1, hCV25651076 rs5743291 NOD2, GG
[31] = endpt1, hCV25651174 rs9277356 HLA-DPB1, GA + GG
[32] = endpt1, hCV342590 rs6030 F5, Strata CC
[33] = endpt1, hCV342590 rs6030 F5, Strata CT
[34] = endpt1, hCV342590 rs6030 F5, Strata TT
[35] = endpt1, hCV435368 rs2812 PECAM1, Strata CC
[36] = endpt1, hCV435368 rs2812 PECAM1, Strata TC
[37] = endpt1, hCV435368 rs2812 PECAM1, Strata TT
[38] = endpt1, hCV3135085 rs10795446 CUBN, Strata GT
[39] = endpt1, hCV3135085 rs10795446 CUBN, Strata TT
[40] = endpt1, hCV3275199 rs2069885 IL9, Strata AA
[41] = endpt1, hCV3275199 rs2069885 IL9, Strata AG
[42] = endpt1, hCV3275199 rs2069885 IL9, Strata GG

SMILES: CC[C@H](C)C(=O)O[C@H]1C[C@H](O)C=C2C=C[C@H](C)[C@H](CC[C@@H](O)C[C@@H](O)CC(=O)O)[C@H]21 [pravastatin]
- NONEVENT (Pravastatin arm) (endpt1, hCV8851047 rs45614833 HLA-DPA1, CT + TT): 1229
- EVENTS (Pravastatin arm) [1]: 120
- NONEVENT (Pravastatin arm) [1]: 1198
- EVENTS (Pravastatin arm) [2]: 13
- NONEVENT (Pravastatin arm) [2]: 90
- EVENTS (Pravastatin arm) [3]: 58
- NONEVENT (Pravastatin arm) [3]: 491
- EVENTS (Pravastatin arm) [4]: 74
- NONEVENT (Pravastatin arm) [4]: 798
- EVENTS (Pravastatin arm) [5]: 126
- NONEVENT (Pravastatin arm) [5]: 1216
- EVENTS (Pravastatin arm) [6]: 7
- NONEVENT (Pravastatin arm) [6]: 40
- EVENTS (Pravastatin arm) [7]: 53
- NONEVENT (Pravastatin arm) [7]: 409
- EVENTS (Pravastatin arm) [8]: 80
- NONEVENT (Pravastatin arm) [8]: 882
- EVENTS (Pravastatin arm) [9]: 88
- NONEVENT (Pravastatin arm) [9]: 759
- EVENTS (Pravastatin arm) [10]: 45
- NONEVENT (Pravastatin arm) [10]: 504
- EVENTS (Pravastatin arm) [11]: 97
- NONEVENT (Pravastatin arm) [11]: 815
- EVENTS (Pravastatin arm) [12]: 36
- NONEVENT (Pravastatin arm) [12]: 440
- EVENTS (Pravastatin arm) [13]: 15
- NONEVENT (Pravastatin arm) [13]: 247
- EVENTS (Pravastatin arm) [14]: 117
- NONEVENT (Pravastatin arm) [14]: 1040
- EVENTS (Pravastatin arm) [15]: 36
- NONEVENT (Pravastatin arm) [15]: 300
- EVENTS (Pravastatin arm) [16]: 96
- NONEVENT (Pravastatin arm) [16]: 985
- EVENTS (Pravastatin arm) (endpt1, hCV9494470, GG): 100
- NONEVENT (Pravastatin arm) (endpt1, hCV9494470, GG): 884
- EVENTS (Pravastatin arm) (endpt1, hCV9494470, TG + TT): 33
- NONEVENT (Pravastatin arm) (endpt1, hCV9494470, TG + TT): 407
- EVENTS (Pravastatin arm) [17]: 64
- NONEVENT (Pravastatin arm) [17]: 678
- EVENTS (Pravastatin arm) [18]: 69
- NONEVENT (Pravastatin arm) [18]: 611
- EVENTS (Pravastatin arm) [19]: 106
- NONEVENT (Pravastatin arm) [19]: 1147
- EVENTS (Pravastatin arm) [20]: 26
- NONEVENT (Pravastatin arm) [20]: 136
- EVENTS (Pravastatin arm) [21]: 19
- NONEVENT (Pravastatin arm) [21]: 113
- EVENTS (Pravastatin arm) [22]: 114
- NONEVENT (Pravastatin arm) [22]: 1178
- EVENTS (Pravastatin arm) (endpt1, hCV25630686 PSMB9, CC): 128
- NONEVENT (Pravastatin arm) (endpt1, hCV25630686 PSMB9, CC): 1206
- EVENTS (Pravastatin arm) [23]: 5
- NONEVENT (Pravastatin arm) [23]: 85
- EVENTS (Pravastatin arm) [24]: 107
- NONEVENT (Pravastatin arm) [24]: 1044
- EVENTS (Pravastatin arm) [25]: 26
- NONEVENT (Pravastatin arm) [25]: 198
- EVENTS (Pravastatin arm) [26]: 24
- NONEVENT (Pravastatin arm) [26]: 184
- EVENTS (Pravastatin arm) [27]: 109
- NONEVENT (Pravastatin arm) [27]: 1107
- EVENTS (Pravastatin arm) (endpt1, hCV25640504, TC + CC): 113
- NONEVENT (Pravastatin arm) (endpt1, hCV25640504, TC + CC): 1035
- EVENTS (Pravastatin arm) (endpt1, hCV25640504, TT): 12
- NONEVENT (Pravastatin arm) (endpt1, hCV25640504, TT): 194
- EVENTS (Pravastatin arm) (endpt1, hCV25644901 ITGA9, AA): 124
- NONEVENT (Pravastatin arm) (endpt1, hCV25644901 ITGA9, AA): 1171
- EVENTS (Pravastatin arm) [28]: 9
- NONEVENT (Pravastatin arm) [28]: 120
- EVENTS (Pravastatin arm) [29]: 28
- NONEVENT (Pravastatin arm) [29]: 217
- EVENTS (Pravastatin arm) [30]: 104
- NONEVENT (Pravastatin arm) [30]: 1068
- EVENTS (Pravastatin arm) [31]: 76
- NONEVENT (Pravastatin arm) [31]: 641
- EVENTS (Pravastatin arm) [32]: 15
- NONEVENT (Pravastatin arm) [32]: 123
- EVENTS (Pravastatin arm) [33]: 44
- NONEVENT (Pravastatin arm) [33]: 553
- EVENTS (Pravastatin arm) [34]: 74
- NONEVENT (Pravastatin arm) [34]: 613
- EVENTS (Pravastatin arm) [35]: 37
- NONEVENT (Pravastatin arm) [35]: 369
- EVENTS (Pravastatin arm) [36]: 56
- NONEVENT (Pravastatin arm) [36]: 649
- EVENTS (Pravastatin arm) [37]: 40
- NONEVENT (Pravastatin arm) [37]: 272
- EVENTS (Pravastatin arm) [38]: 64
- NONEVENT (Pravastatin arm) [38]: 554
- EVENTS (Pravastatin arm) [39]: 57
- NONEVENT (Pravastatin arm) [39]: 575
- EVENTS (Pravastatin arm) [40]: 5
- NONEVENT (Pravastatin arm) [40]: 28
- EVENTS (Pravastatin arm) [41]: 18
- NONEVENT (Pravastatin arm) [41]: 310
- EVENTS (Pravastatin arm) [42]: 109
- NONEVENT (Pravastatin arm) [42]: 947
- HR (hCV16189421, first genotype stratum listed (strata and endpoint not given)): 1
- HR (hCV16189421, second genotype stratum listed (strata and endpoint not given)): 0.67
- HR (hCV25630686, first genotype stratum listed (strata and endpoint not given)): 0.35
- HR (hCV25630686, second genotype stratum listed (strata and endpoint not given)): 0.81
- HR (hCV25631989, first genotype stratum listed (strata and endpoint not given)): 1.83
- HR (hCV25631989, second genotype stratum listed (strata and endpoint not given)): 0.72
- HR (hCV25644901, first genotype stratum listed (strata and endpoint not given)): 0.32
- HR (hCV25644901, second genotype stratum listed (strata and endpoint not given)): 0.86
